Columns and labels:
Assay in all cases: relative viability (nuclei count vs DMSO), 5 days (fraction); higher = more cells survive
[1] = compound: C#Cc1cccc(Nc2ncnc3cc(OCCOC)c(OCCOC)cc23)c1 [Erlotinib] + CS(=O)(=O)CCNCc1ccc(-c2ccc3ncnc(Nc4ccc(OCc5cccc(F)c5)c(Cl)c4)c3c2)o1 [Lapatinib] (partner 2 µM)
Method in brief: (§1)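 Medians of duplicate plates are given as relative viability. That measure is the nuclei count in treated wells divided by the count in vehicle wells. Counts were taken on 4× images of lung cancer cell lines in 1536-well plates, 5 days after pin-tool dosing the day after seeding with one drug alone or a fixed anchor-drug dose plus five library-drug doses (not always all listed) in √10 steps.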

[2] = compound: O=C(Nc1c[nH]nc1-c1nc2ccc(CN3CCOCC3)cc2[nH]1)NC1CC1 [AT9283] + CS(=O)(=O)N1CCN(Cc2cc3nc(-c4cccc5[nH]ncc45)nc(N4CCOCC4)c3s2)CC1 [Pictilisib] (partner 1 µM)
Method in brief: as §1

[3] = compound: O=C(Nc1c[nH]nc1-c1nc2ccc(CN3CCOCC3)cc2[nH]1)NC1CC1 [AT9283] + CC(=O)Nc1cccc(-n2c(=O)n(C3CC3)c(=O)c3c(Nc4ccc(I)cc4F)n(C)c(=O)c(C)c32)c1 [Trametinib] (partner 0.02 µM)
Method in brief: as §1

[4] = compound: C#Cc1cccc(Nc2ncnc3cc(OCCOC)c(OCCOC)cc23)c1 [Erlotinib] + Nc1ncn([C@H]2C[C@H](O)[C@@H](CO)O2)c(=O)n1 [Decitabine] (partner 2 µM)
Method in brief: as §1

[5] = compound: O=C(Nc1c[nH]nc1-c1nc2ccc(CN3CCOCC3)cc2[nH]1)NC1CC1 [AT9283] + C[C@@H](Oc1cc(-c2cnn(C3CCNCC3)c2)cnc1N)c1c(Cl)ccc(F)c1Cl [Crizotinib] (partner 1 µM)
Method in brief: as §1

| Cell Line | relative viability ([1]; first compound 0.02 µM) | relative viability ([1]; first compound 0.2 µM) | relative viability ([1]; first compound 0.6325 µM) | relative viability ([1]; first compound 2 µM) | relative viability ([2]; first compound 0.003 µM) | relative viability ([2]; first compound 0.03 µM) | relative viability ([2]; first compound 0.09487 µM) | relative viability ([2]; first compound 0.3 µM) | relative viability ([3]; first compound 0.003 µM) | relative viability ([3]; first compound 0.03 µM) | relative viability ([3]; first compound 0.09487 µM) | relative viability ([3]; first compound 0.3 µM) | relative viability ([4]; first compound 0.6325 µM) | relative viability ([4]; first compound 2 µM) | relative viability ([5]; first compound 0.003 µM) | relative viability ([5]; first compound 0.03 µM) | relative viability ([5]; first compound 0.09487 µM) | relative viability ([5]; first compound 0.3 µM) | relative viability ([4]; first compound 0.02 µM) | relative viability ([4]; first compound 0.2 µM) |
| --- | --- | --- | --- | --- | --- | --- | --- | --- | --- | --- | --- | --- | --- | --- | --- | --- | --- | --- | --- | --- |
| NCI-H1666 | 0.714 | 0.552 | 0.698 | 0.699 | 0.351 | 0.326 | 0.267 | 0.274 | 0.852 | 0.721 | 0.637 | 0.474 | 0.557 | 0.458 | 1.08 | 0.777 | 0.377 | 0.311 |  |  |
| LC-2-ad | 1.03 | 0.896 | 1.05 | 0.861 | 0.396 | 0.194 | 0.0807 | 0.0727 | 0.872 | 0.707 | 0.5 | 0.236 | 0.735 | 0.656 | 0.44 | 0.275 | 0.288 | 0.238 | 0.889 | 0.79 |
| PC-14 | 0.276 | 0.289 | 0.307 | 0.279 | 0.534 | 0.657 | 0.0566 | 0.0616 | 0.827 | 0.459 | 0.131 | 0.0923 | 0.151 | 0.145 | 0.959 | 0.731 | 0.559 | 0.159 | 0.194 | 0.142 |
| 201T | 1.01 | 1.03 | 1.08 | 0.934 | 0.642 | 0.731 | 0.476 | 0.396 | 0.734 | 0.753 | 0.388 | 0.338 | 0.824 | 0.8 | 0.996 | 1.02 | 0.478 | 0.468 | 0.851 | 0.793 |
| NCI-H1651 | 0.906 | 0.693 | 1.02 | 0.768 | 0.59 | 0.572 | 0.24 | 0.255 | 0.838 | 0.875 | 0.819 | 0.39 | 0.644 | 0.524 | 0.856 | 0.897 | 0.505 | 0.411 | 0.623 | 0.438 |
| RERF-LC-KJ | 0.857 | 0.864 | 0.936 | 0.734 | 0.627 | 0.24 | 0.171 | 0.164 | 0.877 | 0.691 | 0.412 | 0.251 | 0.649 | 0.582 | 0.788 | 0.526 | 0.293 | 0.23 | 0.638 | 0.62 |
| COR-L 105 | 0.368 | 0.322 | 0.335 | 0.36 | 0.405 | 0.273 | 0.279 | 0.28 | 0.399 | 0.395 | 0.328 | 0.297 | 0.41 | 0.351 | 0.73 | 0.326 | 0.274 | 0.237 | 0.729 | 0.463 |
| NCI-H1915 | 1.01 | 0.987 |  | 0.992 | 0.854 | 0.95 | 0.293 | 0.178 | 0.3 | 0.31 | 0.225 | 0.132 | 0.272 | 0.269 | 0.842 | 0.826 | 0.226 | 0.255 | 0.288 | 0.266 |
| NCI-H1975 |  | 0.885 | 0.908 |  | 0.26 | 0.179 | 0.18 | 0.165 | 0.323 | 0.777 | 0.337 | 0.234 | 0.409 | 0.332 | 0.945 | 0.903 | 0.695 | 0.348 | 0.431 | 0.402 |
| PC-3 [JPC-3] | 0.437 | 0.383 | 0.442 | 0.399 | 0.673 | 0.631 | 0.542 | 0.376 | 0.718 | 0.672 | 0.71 | 0.481 | 0.429 | 0.431 | 0.929 | 0.832 | 0.608 | 0.509 | 0.842 | 0.446 |
| HARA | 0.857 | 0.902 | 0.976 | 0.688 | 0.373 | 0.425 | 0.0788 | 0.0662 | 0.691 | 0.203 | 0.118 | 0.151 | 0.374 | 0.353 | 1.1 | 0.4 | 0.105 | 0.13 | 0.69 | 0.49 |
| NCI-H2347 | 1.04 | 1.08 | 0.806 | 0.882 | 0.726 | 1.23 | 0.568 | 0.385 | 0.292 | 0.269 | 0.275 | 0.262 | 0.589 | 0.576 | 0.717 | 0.78 | 0.446 | 0.363 | 0.633 | 0.642 |
| LK-2 | 0.971 | 0.875 | 1.17 | 0.844 | 0.602 | 0.22 | 0.219 | 0.248 | 0.746 | 0.759 | 0.195 | 0.194 | 0.346 | 0.262 | 0.255 | 0.218 | 0.241 | 0.251 | 0.294 | 0.291 |
| NCI-H358 | 0.379 | 0.421 | 0.519 | 0.452 | 0.278 | 0.171 | 0.141 | 0.132 | 0.144 | 0.105 | 0.081 | 0.0743 | 0.179 | 0.167 | 0.391 | 0.175 | 0.156 | 0.145 | 0.216 | 0.183 |
| COR-L23 | 0.944 | 0.979 | 1.16 | 0.96 | 0.83 | 0.132 | 0.107 | 0.123 | 0.668 | 0.245 | 0.166 | 0.161 | 0.49 | 0.434 | 0.616 | 0.185 | 0.118 | 0.158 | 0.425 | 0.432 |
| NCI-H1792 |  | 0.877 | 1.18 | 0.842 | 0.215 | 0.334 | 0.0902 | 0.0932 | 0.315 | 0.376 | 0.509 | 0.258 | 0.505 | 0.477 | 0.933 | 0.993 | 0.984 | 0.811 | 0.634 | 0.482 |
